Values quoted from earlier work as cited in paper PMC2785468, “Androgen Receptor Mutations Associated with Androgen Insensitivity Syndrome: A High Content Analysis Approach Leading to Personalized Medicine” (PLoS ONE, 2009).
pKd: −log10 of the molar value.

Tests used:
[1] = tested on: P766S; design: method as in PMID 7929841; conditions: cited from earlier work
[2] = tested on: F764L mutation; design: method as in PMID 7929841; conditions: MMTV-luc reporter, transfected CV1 cells; cited from earlier work
[3] = biological target: mutant F764L; conditions: transfected CHO cells; cited from earlier work
[4] = tested on: R840C mutated receptor; conditions: transfected CV1 cells; cited from earlier work

## C[C@]12CCC(=O)C[C@@H]1CC[C@@H]1[C@@H]2CC[C@]2(C)[C@@H](O)CC[C@@H]12 [DHT, dihydrotestosterone]
[1]
  transcriptional activity, % of control: 9%
[2]
  transcriptional activity (in words): significantly decreased transcriptional activity
[3]
  pKd: 10.00
[4]
  transcriptional activity, % of control: 67%
